Source: patent publication US11590116B2 (THERAVANCE BIOPHARMA R&D IP, LLC, priority 2019, dated 2023)

Columns and labels:
[1] = target: T1, recombinant human ALK5 (TGF-βR1) protein (Homo sapiens, UniProt P36897); assay: Biochemical ALK5 (TGF-βR1) assay to measure pKi (LANCE Ultra ULight kinase assay); settings: apparent pKi from pIC50 by Cheng-Prusoff, read-out: ALK5 pKi (converted)
T1 construct: purchased Life Technologies PR9075A
T1 sequence (P36897 34-503): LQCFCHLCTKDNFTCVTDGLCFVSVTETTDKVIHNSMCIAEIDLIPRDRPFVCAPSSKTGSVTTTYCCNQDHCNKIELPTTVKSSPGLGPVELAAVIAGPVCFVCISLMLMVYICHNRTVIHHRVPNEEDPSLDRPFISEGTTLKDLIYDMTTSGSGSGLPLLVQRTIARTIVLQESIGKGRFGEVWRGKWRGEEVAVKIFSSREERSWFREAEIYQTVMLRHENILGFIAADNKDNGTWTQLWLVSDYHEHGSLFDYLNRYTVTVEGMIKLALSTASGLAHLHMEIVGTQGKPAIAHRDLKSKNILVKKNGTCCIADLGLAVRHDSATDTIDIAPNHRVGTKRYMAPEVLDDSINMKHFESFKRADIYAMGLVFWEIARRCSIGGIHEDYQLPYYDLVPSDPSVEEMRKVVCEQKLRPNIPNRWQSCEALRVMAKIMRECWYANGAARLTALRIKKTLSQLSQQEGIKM
How it was run: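 Compounds (10 μM to 25 pM) preincubated 60 minutes at room temperature with enzyme, then reaction run 60 minutes at 37° C with ATP added as 125 μM (5× final). Stopped with EDTA plus Eu-anti-phospho-Topoisomerase 2-alpha (Thr1342) antibody, TR-FRET read at 665 nm; pIC50 converted to pKi via Cheng-Prusoff.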

[2] = tested on: TGF-β-stimulated SMAD3 phosphorylation in BEAS-2B cells; assay: Cellular ALK5 potency assay, inhibition of TGF-β stimulated pSMAD3 formation in BEAS-2B cells; type: cell-based; settings: Homo sapiens; inhibition of TGF-β stimulated pSMAD3 formation, BEAS-2B cells; read-out: BEAS2B pIC50 (converted)
How it was run: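 BEAS-2B human lung epithelial cells, seeded overnight, were pre-treated with compound in HBSS/25 mM HEPES/1% BSA for 1 h at 37 °C, then stimulated with TGF-β (final 10 ng/mL) for 30 min. Lysates were assayed for pSMAD3 by AlphaLISA; pIC50 came from dose-dependent signal change versus TGF-β-stimulated untreated cells.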

Row | Compound | Ki [1] [nM] | IC50 [2] [nM]
1 | Cc1cccc(-c2[nH]cnc2-c2ccc3ncc(C4=C[C@@H](C)N[C@H](C)C4)cc3c2)n1 [Compound 8, 3-[(2R,6R)-2,6-dimethyl-1,2,3,6-tetrahydropyridin-4-yl]-6-[5-(6-methyl-2-pyridyl)-1H-imidazol-4-yl]quinoline] | 0.0398 to 0.316 | 25.1 to 158
2 | Cc1cccc(-c2[nH]cnc2-c2ccc3ncc(NCCN4CCCC4(C)C)cc3n2)n1 [Compound 627, N-[2-(2,2-dimethylpyrrolidin-1-yl)ethyl]-6-[5-(6-methyl-2-pyridyl)-1H-imidazol-4-yl]-1,5-naphthyridin-3-amine] | 0.0398 to 0.316 | 25.1 to 158
3 | Cc1cccc(-c2[nH]cnc2-c2ccc3ncc(-c4cnc(C(=O)OC5CNC5)nc4)cc3c2)n1 [Compound 1112, azetidin-3-yl 5-[6-[5-(6-methyl-2-pyridyl)-1H-imidazol-4-yl]-3-quinolyl]pyrimidine-2-carboxylate] | 0.398 to 3.16 | 1580 to 10000
4 | Cc1cccc(-c2[nH]cnc2-c2ccc3ncc(Br)cc3c2)n1 [Compound 1190, 3-bromo-6-[5-(6-methyl-2-pyridyl)-1H-imidazol-4-yl]quinoline] | 0.0398 to 0.316 | < 20
5 | Cc1cccc(-c2[nH]cnc2-c2ccc3ncc(-c4ccc(C(=O)OCCN5CCN6CCCC6C5)cn4)cc3c2)n1 (centres unmarked) [Compound 1212, 2-(3,4,6,7,8,8a-hexahydro-1H-pyrrolo[1,2-a]pyrazin-2-yl)ethyl 6-[6-[5-(6-methyl-2-pyridyl)-1H-imidazol-4-yl]-3-quinolyl]pyridine-3-carboxylate] | 0.0398 to 0.316 | 25.1 to 158
6 | Cc1nc(-c2n[nH]cc2-c2ccc3ncc(-c4nc(C)c(CCN)[nH]4)cc3n2)ccc1F [Compound 483, 2-[2-[6-[3-(5-fluoro-6-methyl-2-pyridyl)-1H-pyrazol-4-yl]-1,5-naphthyridin-3-yl]-4-methyl-1H-imidazol-5-yl]ethanamine] | 0.0398 to 0.316 | 200 to 1260
7 | Cc1cccc(-c2[nH]cnc2-c2ccc3ncc(C(=O)O[C@H]4C[C@@H](N)C4)cc3c2)n1 [Compound 759, (3-aminocyclobutyl) 6-[5-(6-methyl-2-pyridyl)-1H-imidazol-4-yl]quinoline-3-carboxylate] | 0.0398 to 0.316 | 25.1 to 158
8 | Cc1cccc(-c2[nH]cnc2-c2ccc3ncc(C(=O)OCCC4CNC4)cc3c2)n1 [Compound 761, 2-(azetidin-3-yl)ethyl 6-[5-(6-methyl-2-pyridyl)-1H-imidazol-4-yl]quinoline-3-carboxylate] | 0.0398 to 0.316 | 200 to 1260
9 | Cc1cccc(-c2[nH]cnc2-c2ccc3ncc(C(=O)OCCN4CCC5NCCC5C4)cc3c2)n1 (centres unmarked) [Compound 1065, 2-(1,2,3,3a,4,6,7,7a-octahydropyrrolo[3,2-c]pyridin-5-yl)ethyl 6-[5-(6-methyl-2-pyridyl)-1H-imidazol-4-yl]quinoline-3-carboxylate] | 0.0398 to 0.316 | 200 to 1260
10 | Cc1cccc(-c2[nH]cnc2-c2ccc3ncc(C4=CCCCC4)cc3c2)n1 [Compound 147, 3-(cyclohexen-1-yl)-6-[5-(6-methyl-2-pyridyl)-1H-imidazol-4-yl]quinoline] | 0.0398 to 0.316 | 25.1 to 158
11 | Cc1cccc(-c2[nH]cnc2-c2ccc3ncc(C4=CC[C@H](NC(=O)[C@@H]5CCC(=O)N5)CC4)cc3c2)n1 [Compound 764, (2S)-N-[(1R)-4-[6-[5-(6-methyl-2-pyridyl)-1H-imidazol-4-yl]-3-quinolyl]cyclohex-3-en-1-yl]-5-oxo-pyrrolidine-2-carboxamide] | 0.0398 to 0.316 | 200 to 1260
12 | COC(=O)c1coc(-c2ccnc3ccc(-c4c[nH]nc4-c4cccc(C)n4)nc23)n1 [Compound 817, methyl 2-[6-[3-(6-methyl-2-pyridyl)-1H-pyrazol-4-yl]-1,5-naphthyridin-4-yl]oxazole-4-carboxylate] | 0.398 to 3.16 | 200 to 1260
13 | Cc1cccc(-c2[nH]cnc2-c2ccc3ncc(-c4csc(C(=O)OCC5CNC5)n4)cc3c2)n1 [Compound 1148, azetidin-3-ylmethyl 4-[6-[5-(6-methyl-2-pyridyl)-1H-imidazol-4-yl]-3-quinolyl]thiazole-2-carboxylate] | 0.0398 to 0.316 | 25.1 to 158
14 | Cc1cccc(-c2[nH]cnc2-c2ccc3ncc(-c4ccc(C(=O)O[C@@H]5CCNC5)cn4)cc3c2)n1 [Compound 1111, [(3R)-pyrrolidin-3-yl] 6-[6-[5-(6-methyl-2-pyridyl)-1H-imidazol-4-yl]-3-quinolyl]pyridine-3-carboxylate] | < 0.0316 | 25.1 to 158
15 | CC(=O)NC1CC=C(c2cnc3ccc(-c4nc[nH]c4-c4cccc(C)n4)cc3c2)CC1 (centres unmarked) [Compound 26, N-[4-[6-[5-(6-methyl-2-pyridyl)-1H-imidazol-4-yl]-3-quinolyl]cyclohex-3-en-1-yl]acetamide] | < 0.0316 | < 20
16 | Cc1cccc(-c2[nH]cnc2-c2ccc3ncc(-c4cc(C(=O)OC5CCNCC5)cs4)cc3c2)n1 [Compound 1139, 4-piperidyl 5-[6-[5-(6-methyl-2-pyridyl)-1H-imidazol-4-yl]-3-quinolyl]thiophene-3-carboxylate] | < 0.0316 | 25.1 to 158
17 | Cc1cccc(-c2[nH]cnc2-c2ccc3ncc(-c4cccc(C(=O)OC5CCNCC5)c4)cc3c2)n1 [Compound 224, 4-piperidyl 3-[6-[5-(6-methyl-2-pyridyl)-1H-imidazol-4-yl]-3-quinolyl]benzoate] | 0.0398 to 0.316 | 25.1 to 158

Further lines, with some results ahead:

Row | Ki [1] [nM] | Compound | IC50 [2] [nM]
18 | < 0.0316 | Cc1cccc(-c2n[nH]cc2-c2ccc3ncc(-c4ccnnc4)cc3n2)n1 [Compound 215, 2-[3-(6-methyl-2-pyridyl)-1H-pyrazol-4-yl]-7-pyridazin-4-yl-1,5-naphthyridine] | < 20
19 | 0.0398 to 0.316 | Cc1cccc(-c2n[nH]cc2-c2ccc3ncc(N4CCC(N5CCN(C)CC5)CC4)cc3n2)n1 [Compound 205, 7-[4-(4-methylpiperazin-1-yl)-1-piperidyl]-2-[3-(6-methyl-2-pyridyl)-1H-pyrazol-4-yl]-1,5-naphthyridine] | 25.1 to 158
20 | < 0.0316 | Cc1cccc(-c2[nH]cnc2-c2ccc3ncc(-c4csc(C(=O)OCCN5CCNCC5)c4)cc3c2)n1 [Compound 1242, 2-piperazin-1-ylethyl 4-[6-[5-(6-methyl-2-pyridyl)-1H-imidazol-4-yl]-3-quinolyl]thiophene-2-carboxylate] | 25.1 to 158
21 | 0.0398 to 0.316 | Cc1nc(-c2nc3ccccn3c2-c2ccc3ncc(-c4cnn(C5CCCNC5)c4)cc3n2)ccc1F (centres unmarked) [Compound 576, 2-[2-(5-fluoro-6-methyl-2-pyridyl)imidazo[1,2-a]pyridin-3-yl]-7-[1-(3-piperidyl)pyrazol-4-yl]-1,5-naphthyridine] | 25.1 to 158
22 | 0.398 to 3.16 | Cc1cccc(-c2n[nH]cc2-c2ccc3nccc(N4CC(N5CCOCC5)C4)c3n2)n1 [Compound 846, 4-[1-[6-[3-(6-methyl-2-pyridyl)-1H-pyrazol-4-yl]-1,5-naphthyridin-4-yl]azetidin-3-yl]morpholine] | 200 to 1260
23 | 0.398 to 3.16 | Cc1cccc(-c2n[nH]cc2-c2ccc3nccc(C(=O)OCCCN4CCOCC4)c3n2)n1 [Compound 826, 3-morpholinopropyl 6-[3-(6-methyl-2-pyridyl)-1H-pyrazol-4-yl]-1,5-naphthyridine-4-carboxylate] | 25.1 to 158
24 | 0.0398 to 0.316 | Cc1cccc(-c2n[nH]cc2-c2ccc3ncc(N(C)CCCN4CCOCC4)cc3n2)n1 [Compound 506, N-methyl-6-[3-(6-methyl-2-pyridyl)-1H-pyrazol-4-yl]-N-(3-morpholinopropyl)-1,5-naphthyridin-3-amine] | 25.1 to 158
25 | < 0.0316 | Cc1nc(-c2n[nH]cc2-c2ccc3ncc(NCCN4CCCC4)cc3n2)ccc1F [Compound 381, 6-[3-(5-fluoro-6-methyl-2-pyridyl)-1H-pyrazol-4-yl]-N-(2-pyrrolidin-1-ylethyl)-1,5-naphthyridin-3-amine] | 25.1 to 158
26 | < 0.0316 | Cc1cccc(-c2n[nH]cc2-c2ccc3ncc(-c4cnn(CCN5CCNCC5)c4)cc3n2)n1 [Compound 178, 2-[3-(6-methyl-2-pyridyl)-1H-pyrazol-4-yl]-7-[1-(2-piperazin-1-ylethyl)pyrazol-4-yl]-1,5-naphthyridine] | 25.1 to 158
27 | < 0.0316 | Cc1cccc(-c2n[nH]cc2-c2ccc3ncc(N4CC(C)(N(C)C)C4)cc3n2)n1 [Compound 586, N,N,3-trimethyl-1-[6-[3-(6-methyl-2-pyridyl)-1H-pyrazol-4-yl]-1,5-naphthyridin-3-yl]azetidin-3-amine] | 25.1 to 158
28 | < 0.0316 | Cc1nc(-c2n[nH]cc2-c2ccc3ncc(-c4cc5n(n4)CCCN5)cc3n2)ccc1F [Compound 651, 2-[3-(5-fluoro-6-methyl-2-pyridyl)-1H-pyrazol-4-yl]-7-(4,5,6,7-tetrahydropyrazolo[1,5-a]pyrimidin-2-yl)-1,5-naphthyridine] | < 20
